These results are taken from patent US20040072738A1, “Analogues of thiocoraline and be-22179” (priority 2000, published 2004).

Bridge positions count the residues as written; N and C are the ends. Square brackets hold non-standard residues; d marks the D form. Peptide text beside a SMILES is read from it. I, II: the chains in the order shown. * marks the point of attachment. Quinaldoyl(3-OH) = O=C(c1nc2ccccc2cc1O)*; NMeC = CN[C@@H](CS)C(=O)O

Data set [1] addresses HIV-1 reverse transcriptase (Human immunodeficiency virus type 1 group M subtype B, UniProt P03366). Kind of data set: inhibition of HIV-1 reverse transcriptase. It counts as biochemical.
For the next data set, the target named is T1, DNA polymerase α (Homo sapiens, UniProt P09884).
T1 sequence (P09884 1-1462): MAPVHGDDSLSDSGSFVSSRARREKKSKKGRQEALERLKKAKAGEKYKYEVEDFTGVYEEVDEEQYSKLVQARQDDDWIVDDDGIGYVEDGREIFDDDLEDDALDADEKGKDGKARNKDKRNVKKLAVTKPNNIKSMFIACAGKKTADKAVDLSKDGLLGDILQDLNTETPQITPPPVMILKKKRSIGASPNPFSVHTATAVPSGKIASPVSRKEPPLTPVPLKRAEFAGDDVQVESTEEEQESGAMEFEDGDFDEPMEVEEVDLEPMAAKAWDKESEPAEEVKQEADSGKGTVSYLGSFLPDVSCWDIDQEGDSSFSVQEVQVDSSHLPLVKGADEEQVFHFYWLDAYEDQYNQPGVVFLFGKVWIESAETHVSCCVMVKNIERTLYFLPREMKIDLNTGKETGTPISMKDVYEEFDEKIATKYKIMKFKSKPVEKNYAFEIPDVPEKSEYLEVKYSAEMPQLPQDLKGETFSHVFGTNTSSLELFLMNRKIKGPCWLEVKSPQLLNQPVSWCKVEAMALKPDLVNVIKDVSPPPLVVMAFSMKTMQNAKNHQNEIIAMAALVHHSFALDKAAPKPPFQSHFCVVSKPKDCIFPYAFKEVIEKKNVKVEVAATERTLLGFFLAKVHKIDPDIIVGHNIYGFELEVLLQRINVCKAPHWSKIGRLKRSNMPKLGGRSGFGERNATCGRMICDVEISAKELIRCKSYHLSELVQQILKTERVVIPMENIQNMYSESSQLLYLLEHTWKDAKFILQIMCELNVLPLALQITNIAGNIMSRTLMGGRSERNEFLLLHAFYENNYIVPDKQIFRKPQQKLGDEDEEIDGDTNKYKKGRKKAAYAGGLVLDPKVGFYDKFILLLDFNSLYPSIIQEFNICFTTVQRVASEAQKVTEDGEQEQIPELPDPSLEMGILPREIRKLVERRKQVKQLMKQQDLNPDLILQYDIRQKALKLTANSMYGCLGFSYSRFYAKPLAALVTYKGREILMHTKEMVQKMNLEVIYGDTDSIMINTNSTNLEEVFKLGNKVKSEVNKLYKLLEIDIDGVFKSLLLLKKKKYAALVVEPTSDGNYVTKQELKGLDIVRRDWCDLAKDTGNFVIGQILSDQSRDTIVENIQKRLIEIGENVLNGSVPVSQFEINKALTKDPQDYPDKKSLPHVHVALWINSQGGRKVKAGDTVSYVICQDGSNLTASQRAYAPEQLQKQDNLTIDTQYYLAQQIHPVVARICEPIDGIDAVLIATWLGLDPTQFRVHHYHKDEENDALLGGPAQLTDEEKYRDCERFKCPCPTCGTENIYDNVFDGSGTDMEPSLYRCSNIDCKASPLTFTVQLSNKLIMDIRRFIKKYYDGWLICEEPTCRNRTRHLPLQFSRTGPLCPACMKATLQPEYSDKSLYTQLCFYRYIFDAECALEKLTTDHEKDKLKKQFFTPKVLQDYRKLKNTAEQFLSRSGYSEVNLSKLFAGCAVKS
As to conditions: at concentrations that inhibit cell cycle progression and clonogenicity; cited from earlier work.

The test system of a further data set is supercoiled ΦX174 DNA. Kind of data set: DNA cleavage assay, conversion of Form I to Form II or Form III. The data set is classed as biochemical. The text has this: Also examined was the ability of 1 or 2 to cleave, alkylate, or cross-link DNA. In particular, the electrophilic unsaturation found in BE-22179 might be expected to serve as an alkylation site for covalent attachment to DNA, especially following bisintercalation binding. […] These studies would detect both thermally labile and non thermally labile alkylation sites, but only those engaged in interstrand cross-linking. Given the C2 symmetric nature of 2, bisintercalation analogous to echinomycin and triostin A places the two electrophilic sites in positions to react only with the complementary strands of duplex DNA (interstrand DNA cross-linking) and would preclude intrastrand DNA cross-linking.

The subject of a further data set is L1210 cell line. Kind of data set: cytotoxic activity in the L1210 assays. As to conditions: read-out: IC50 cytotoxic activity; L1210 cell line.

For the compound `CSC[C@H]1C(=O)SC[C@@H](NC(=O)c2nc3ccccc3cc2O)C(=O)NCC(=O)N(C)[C@H]2CSSC[C@@H](C(=O)N1C)N(C)C(=O)CNC(=O)[C@H](NC(=O)c1nc3ccccc3cc1O)CSC(=O)[C@H](CSC)N(C)C2=O` [Thiocoraline] (I: {Quinaldoyl(3-OH)}-[dC]G[NMeC][NMeC](Me) / II: {Quinaldoyl(3-OH)}-[dC]G[NMeC][NMeC](Me); thioester I:1-II:C, I:C-II:1; disulfide I:3-II:3), the “inhibition of HIV-1 reverse transcriptase (in words)” value in data set [1] is “weak inhibitor”. The “inhibition of DNA polymerase α” value at DNA polymerase α is “does inhibit”. The DNA cleavage entry in the data set on supercoiled ΦX174 DNA is reported as “No evidence”. The IC50 with L1210 cell line came out at 0.2 nM.

The IC50 is the point on the concentration scale where inhibition reaches its midpoint.
